Experimental data: patent US9561228B2 (Celgene Avilomics Research, Inc., priority 2013, dated 2017)

System: ERK1/2 phosphorylation of p90RSK in HT29 cells
Experiment: pRSK MSD Assay in HT29 cells
Assay type: cell-based
Conditions: Homo sapiens, HT-29, read-out: ERK1/ERK2 PRSK MSD HT29 EC50
Description: The protocol below describes an assay to measure the kinase activity of ERK1/2 to phosphorylate a substrate, p90RSK, in the presence or absence of a test compound. This experiment was conducted using a Mesoscale Discovery plate. The day before the assay, HT29 cells were split and plated at 50,000 cells/well in complete growth media. After allowing cells to adhere, the media was removed and replaced with media containing 0.1% FBS and incubated overnight. Blank MSD plates (Mesoscale Discovery, Cat # L15XA3) were coated with 25 μl/well RSK capture antibody (BD Biosciences, Cat. #610226) and incubated at 4° C. overnight, then blocked with 150 μl of 3% BSA solution. The next day, the media from the cell culture plate was removed and replaced with 100 μl of media containing a test compound and incubated for 120 minutes at 37° C. The media was removed and replaced with 55 μl per well of lysis buffer with protease inhibitors (Roche Biosciences, Cat. #11836170001) and phosphatase inhibitors (Sigma-Aldrich, Cat. # P-0044 and P-5726), followed by incubation at 4° C. for 30 minutes. 50 μl of lysate was transferred to a blocked MSD plate, followed by incubation at room temperature for 2 hours under constant shaking. The plate was washed 3 times with MSD wash buffer (Mesoscale Discovery, Cat. # R617TX), and 25 μl/well phospho-RSK (pRSK) detection antibody (Cell Signaling Technology, Cat. #9335) was added with Sulfo-tagged detection antibody (Mesoscale Discovery, Cat. # R32AB-1) diluted in 1% BSA in MSD wash buffer. This mixture was incubated for 1 hour at room temperature under constant shaking. The plate was washed 3 times, and 150 μl 1×MSD read buffer was added, followed by signal detection in an MSD plate reader.

| Compound | EC50 [nM] |
| --- | --- |
| CC(C)=CC(=O)c1ccccc1Oc1nc(Nc2ccc(F)cc2C)ncc1Cl [Compound I-222, 1-(2-((5-chloro-2-((4-fluoro-2-methylphenyl)amino)pyrimidin-4-yl)oxy)phenyl)-3-methylbut-2-en-1-one] | > 1000 |
| C=C(C)S(=O)(=O)Nc1cc(F)ccc1Nc1nc(N[C@H]2CCCN(C(=O)CO)C2)ncc1C(F)(F)F [Compound I-54, (S)—N-(5-Fluoro-2-((2-((1-(2-hydroxyacetyl)piperidin-3-yl)amino)-5-(trifluoromethyl)pyrimidin-4-yl)amino)phenyl)prop-1-ene-2-sulfonamide] | > 1000 |
| C=CC(=O)Nc1cc(C)ccc1Nc1nc(Nc2cc(Cl)nc(OC)c2)ncc1Cl [Compound I-244, N-(2-((5-chloro-2-((2-chloro-6-methoxypyridin-4-yl)amino)pyrimidin-4-yl)amino)-5-methylphenyl)acrylamide] | 101 to 500 |
| CC(C)=CC(=O)c1ccccc1Oc1nc(Nc2cc(C(N)=O)ccc2C)ncc1Cl [Compound I-223, 3-((5-chloro-4-(2-(3-methylbut-2-enoyl)phenoxy)pyrimidin-2-yl)amino)-4-methylbenzamide] | > 1000 |
| C=CC(=O)N(C)c1ccccc1Nc1nc(Nc2cc(C(=O)NOC)ccc2C#N)ncc1Cl [Compound I-197, 3-((5-chloro-4-((2-(N-methylacrylamido)phenyl)amino)pyrimidin-2-yl)amino)-4-cyano-N-methoxybenzamide] | > 1000 |
| C=CC(=O)Nc1ccccc1CNc1nc(N[C@H]2CCCN(C(=O)CO)C2)ncc1C(F)(F)F [Compound I-45, (S)—N-(2-(((2-((1-(2-Hydroxyacetyl)piperidin-3-yl)amino)-5-(trifluoromethyl)pyrimidin-4-yl)amino)methyl)phenyl)acrylamide] | > 1000 |
| C=CC(=O)Nc1cc(Cl)ccc1Nc1nc(Nc2cc(Cl)nc(OC)c2)ncc1Cl [Compound I-247, N-(5-chloro-2-((5-chloro-2-((2-chloro-6-methoxypyridin-4-yl)amino)pyrimidin-4-yl)amino)phenyl)acrylamide] | 101 to 500 |
| C=C(C)S(=O)(=O)Nc1cc(C)ccc1Nc1nc(NC2CCC(=O)CC2)ncc1C(F)(F)F [Compound I-53, N-(5-Methyl-2-((2-((4-oxocyclohexyl)amino)-5-(trifluoromethyl)pyrimidin-4-yl)amino)phenyl)prop-1-ene-2-sulfonamide] | > 1000 |
| C=CC(=O)Nc1ccccc1Nc1nc(N[C@H]2CCCN(C(=O)C3CC3)C2)ncc1Cl [Compound I-136, (S)—N-(2-((5-chloro-2-((1-(cyclopropanecarbonyl)piperidin-3-yl)amino)pyrimidin-4-yl)amino)phenyl)acrylamide] | 501 to 999 |
| C=CC(=O)Nc1ccccc1Nc1nc(N[C@@H]2CCN(C(=O)CO)C2)ncc1C(F)(F)F [Compound I-62, (R)—N-(2-((2-((1-(2-Hydroxyacetyl)pyrrolidin-3-yl)amino)-5-(trifluoromethyl)pyrimidin-4-yl)amino)phenyl)acrylamide] | > 1000 |
| C=C(C)C(=O)Nc1ccccc1Nc1nc(Nc2cc(C(N)=O)ccc2C)ncc1Cl [Compound I-217, 3-((5-chloro-4-((2-methacrylamidophenyl)amino)pyrimidin-2-yl)amino)-4-methylbenzamide] | > 1000 |
| CC(=O)N1CCC[C@H](Nc2ncc(C(F)(F)F)c(N[C@@H]3[C@H](C(N)=O)[C@H]4C=C[C@@H]3C4)n2)C1 [Compound I-309, (1R,2R,3S,4S)-3-((2-(((S)-1-acetylpiperidin-3-yl)amino)-5-(trifluoromethyl)pyrimidin-4-yl)amino)bicyclo[2.2.1]hept-5-ene-2-carboxamide] | > 1000 |
| C=CC(=O)Nc1ccccc1Nc1nc(N[C@H]2CCCN(C(=O)OC)C2)ncc1C(F)(F)F [Compound I-17, (S)-Methyl 3-((4-((2-acrylamidophenyl)amino)-5-(trifluoromethyl)pyrimidin-2-yl)amino) piperidine-1-carboxylate] | 101 to 500 |
